The values that follow come from publication PMC11093748, “De novo identification of CD4^+ T cell epitopes” (Nature Methods, 2024).

What all share (assay): I-Ag7 SABR-II library screen, enrichment score
What all share (format): cell-based, mouse

One assay has as its system TCR21A. As to conditions: TCR_Mean minus PREDICTED_TCR (slope 0.957287, intercept 1.04818e-5 on LIB_Mean), TCR 21A, run PZ56. The procedure, abridged:
(§1)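 Read-out is Illumina read counts of SABR […] from sorted reporter cells (top 1–2% GFP⁺CD69⁺) after TCR⁺ Jurkat co-incubation with the I-Ag7 islet-epitope SABR-II library. Per-TCR scoring compares these counts with expected abundance derived from unsorted-library sequencing.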

The subject of the next assay is TCR35. As to conditions: TCR_Mean minus PREDICTED_TCR (slope 0.982658, intercept 4.25575e-6 on LIB_Mean), TCR 35, run PZ101. The procedure, abridged: as §1
The subject of a further assay is TCR26. As to conditions: TCR_Mean minus PREDICTED_TCR (slope 0.971972, intercept 6.87806e-6 on LIB_Mean), TCR 26, run PZ56. The essentials: as §1
A further assay deals with TCR10A. The following applies: TCR_Mean minus PREDICTED_TCR (from LIB_Mean, SLOPE 0.950997, INTERCEPT 1.20253e-5), PZ47. The essentials:
as §1

Another assay deals with TCR17B. The following applies: TCR_Mean minus PREDICTED_TCR (from LIB_Mean, SLOPE 0.911347, INTERCEPT 2.17553e-5), PZ52. The procedure, abridged:
as §1

The next assay concerns TCR28. The following applies: TCR_Mean minus PREDICTED_TCR (slope 0.899229, intercept 2.47291e-5 on LIB_Mean), TCR 28, run PZ57. The essentials: as §1
The subject of a further assay is TCR17A. The following applies: TCR_Mean minus PREDICTED_TCR (from LIB_Mean, SLOPE 0.925966, INTERCEPT 1.81678e-5), PZ52. The procedure, abridged: as §1

In the case of AAVEEGIVAGGGVTLL, the “Enrichment score” value in the assay on TCR21A is on record as 7.745e-5; in the assay with TCR35 it was -8.894e-5; in the assay with TCR26, -0.0002176; with TCR10A it was 0.0001778; in the assay with TCR17B, -0.0001643; in the assay on TCR28 it was -8.055e-6. In addition, in the assay with TCR17A, the “Enrichment score” value is on record as -0.0001329.
In the case of AEKVRNLPAGHGLNAQ, the “Enrichment score” value is 0.0001683 in the assay on TCR21A; -0.0001779 with TCR35; 4.292e-6 with TCR26; -7.319e-5 in the assay with TCR10A; -3.983e-5 with TCR17B; 9.652e-5 in the assay with TCR28. The “Enrichment score” value in the assay on TCR17A is given as -0.0001276.
Regarding AGGVAVIKAGAATEV, the “Enrichment score” value with TCR21A was 3.881e-5; in the assay on TCR35, 7.19e-5; in the assay on TCR26, -8.754e-5; in the assay on TCR10A it was -2.727e-5; in the assay on TCR17B, 5.455e-5; in the assay on TCR28, 5.039e-6. Besides, the “Enrichment score” value in the assay with TCR17A is on record as -5.895e-5.
For AKAAVEEGIVAGGGV, the “Enrichment score” value is listed as -4.928e-5 with TCR21A; -4.28e-5 in the assay on TCR35; -6.247e-5 in the assay on TCR26; -4.524e-5 in the assay on TCR10A; 0.0004148 with TCR17B; 0.000168 in the assay with TCR28. In addition, the “Enrichment score” value with TCR17A was 7.661e-5.
As to ALVREGLRNVAAGANP, the “Enrichment score” value with TCR21A was -1.111e-5; in the assay on TCR35 it was -4.256e-6; in the assay on TCR26 it was -7.519e-6; in the assay with TCR10A, -1.221e-5; in the assay with TCR17B, -2.185e-5; in the assay with TCR28, -1.908e-5. The “Enrichment score” value in the assay on TCR17A was -1.826e-5.
